Data reported in patent publication US20070185162A1, “Substituted diketopiperazines as oxytocin receptor antagonists” (Koninklijke Philips Electronics, N.V., priority 2004, published 2007).

biological target: T1, human Oxytocin-1 (hOT) receptor (Homo sapiens, UniProt P30559); assay: Determination of antagonist affinity at human Oxytocin-1 receptors using FLIPR (Assay 1); format: cell-based; settings: CHO-hOT cells, [Ca2+]i response to oxytocin (EC80); mean, n>=3; read-out: hOT FLIPR fpKi mean
T1 construct: expressed in transfected cells
T1 sequence (P30559 1-389): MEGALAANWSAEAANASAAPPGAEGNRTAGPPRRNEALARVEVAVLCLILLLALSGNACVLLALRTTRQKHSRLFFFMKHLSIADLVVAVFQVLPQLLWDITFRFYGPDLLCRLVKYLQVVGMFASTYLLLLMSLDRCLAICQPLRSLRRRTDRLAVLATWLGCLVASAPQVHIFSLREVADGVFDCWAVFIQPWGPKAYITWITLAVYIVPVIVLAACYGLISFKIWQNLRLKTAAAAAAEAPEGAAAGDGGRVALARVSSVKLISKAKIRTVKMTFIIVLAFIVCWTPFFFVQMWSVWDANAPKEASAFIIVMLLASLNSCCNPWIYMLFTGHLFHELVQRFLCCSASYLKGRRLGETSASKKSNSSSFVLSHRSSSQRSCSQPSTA
Protocol: Determination of Antagonist Affinity at Human Oxytocin-1 Receptors Using FLIPR
Adherent Chinese Hamster Ovary (CHO) cells, stably expressing the recombinant human Oxytocin-1 (hOT) receptor, were maintained in culture in DMEM:F12 medium (Sigma, cat no D6421), supplemented with 10% heat inactivated foetal calf serum (Gibco/Invitrogen, cat. no. 01000-147), 2 mM L-glutamine (Gibco/Invitrogen, cat. no. 25030-024) and 0.2 mg/ml G418 (Gibco/Invitrogen, cat no. 10131-027). Cells were grown as monolayers under 95%:5% air:CO2 at 37° C. and passaged every 3-4 days using TrypLE™ Express (Gibco/Invitrogen, cat no. 12604-013).
Measurement of [Ca^2+]i Using the FLIPR™
CHO-hOT cells were seeded into black walled clear-base 384-well plates (Nunc) at a density of 10,000 cells per well in culture medium as described above and maintained overnight (95%:5% air:CO2 at 37° C.). After removal of culture medium, cells were incubated for 1 h at 37° C. in Tyrode's medium (NaCl, 145 mM; KCl, 2.5 mM; HEPES, 10 mM; Glucose, 10 mM; MgCl2, 1.2 mM; CaCl2, 1.5 mM) containing probenacid (0.7 mg/ml), the cytoplasmic calcium indicator, Fluo-4 (4 uM; Teflabs, USA) and the quenching agent Brilliant Black (250 uM; Molecular Devices, UK). Cells were then incubated for an additional 30 min at 37° C. with either buffer alone or buffer containing OT antagonist, before being placed into a FLIPR™ (Molecular Devices, UK) to monitor cell fluorescence (λex=488 nm, λEM=540 nm) before and after the addition of a submaximal concentration of oxytocin (EC80).
Functional responses using FLIPR were analysed using Activity Base Version 5.0.10. Data are reported as mean values, wherein number of times tested (n) is greater than or equal to 3.

SMILES | Ki [nM]
Cc1ccc([C@H](C(=O)N(C)C)N2C(=O)[C@@H](C3Cc4ccccc4C3)NC(=O)[C@H]2CC(C)C)cn1 [Comparator X, (2R)-2-[(3R,6R)-3-(2,3-dihydro-1H-inden-2-yl)-6-isobutyl-2,5-dioxopiperazin-1-yl]-N,N-dimethyl-2-(6-methylpyridin-3-yl)ethanamide, reference compound] | 7.94 to 25.1
Cc1nc([C@H](C(=O)N2CCOCC2)N2C(=O)[C@@H](C3Cc4ccccc4C3)NC(=O)[C@H]2CC(C)C)co1 [Comparator Y, (3R,6R)-3-(2,3-dihydro-1H-inden-2-yl)-1-[(1R)-1-(2-methyl-1,3-oxazol-4-yl)-2-(4-morpholinyl)-2-oxoethyl]-6-(2-methylpropyl)-2,5-piperazinedione, reference compound] | 31.6 to 100
CCC(CC)[C@@H]1C(=O)N[C@H](C2Cc3ccccc3C2)C(=O)N1[C@@H](C(=O)NC)c1ccc(C)nc1 [Example 1, (2R)-2-[(3R,6R)-3-(2,3-Dihydro-1H-inden-2-yl)-6-(1-ethylpropyl)-2,5-dioxo-1-piperazinyl]-N-methyl-2-(6-methyl-3-pyridinyl)ethanamide] | 2 to 6.31
CCC(CC)[C@@H]1C(=O)N[C@H](C2Cc3ccccc3C2)C(=O)N1[C@@H](C(=O)N(C)C)c1ccc(C)nc1 [Example 2, (2R)-2-[(3R,6R)-3-(2,3-Dihydro-1H-inden-2-yl)-6-(1-ethylpropyl)-2,5-dioxo-1-piperazinyl]-N,N-dimethyl-2-(6-methyl-3-pyridinyl)ethanamide] | 0.501 to 1.58
CCC(CC)[C@@H]1C(=O)N[C@H](C2Cc3ccccc3C2)C(=O)N1[C@@H](C(=O)NC)c1ccc(C)nc1C [Example 3, (2R)-2-[(3R,6R)-3-(2,3-Dihydro-1H-inden-2-yl)-6-(1-ethylpropyl)-2,5-dioxo-1-piperazinyl]-2-(2,6-dimethyl-3-pyridinyl)-N-methylethanamide] | 0.501 to 1.58
CCC(CC)[C@@H]1C(=O)N[C@H](C2Cc3ccccc3C2)C(=O)N1[C@@H](C(=O)N(C)C)c1ccc(C)nc1C [Example 4, (2R)-2-[(3R,6R)-3-(2,3-Dihydro-1H-inden-2-yl)-6-(1-ethylpropyl)-2,5-dioxo-1-piperazinyl]-2-(2,6-dimethyl-3-pyridinyl)-N,N-dimethylethanamide] | 0.501 to 1.58
CCC(CC)[C@@H]1C(=O)N[C@H](C2Cc3ccccc3C2)C(=O)N1[C@@H](C(=O)N1CCOCC1)c1coc(C)n1 [Example 9, (3R,6R)-3-(2,3-Dihydro-1H-inden-2-yl)-6-(1-ethylpropyl)-1-[(1R)-1-(2-methyl-1,3-oxazol-4-yl)-2-(4-morpholinyl)-2-oxoethyl]-2,5-piperazinedione] | 0.501 to 1.58

Stronger by Ki, values ahead:

Ki [nM] | SMILES
≤ 0.398 | CCC(CC)[C@@H]1C(=O)N[C@H](C2Cc3ccccc3C2)C(=O)N1[C@@H](C(=O)N1CCOCC1)c1ccc(C)nc1C [Example 5, (3R,6R)-3-(2,3-Dihydro-1H-inden-2-yl)-1-[(1R)-1-(2,6-dimethyl-3-pyridinyl)-2-(4-morpholinyl)-2-oxoethyl]-6-(1-ethylpropyl)-2,5-piperazinedione]
≤ 0.398 | CCC(CC)[C@@H]1C(=O)N[C@H](C2Cc3ccccc3C2)C(=O)N1[C@@H](C(=O)NC)c1ccc2c(cnn2C)c1 [Example 6, (2R)-2-[(3R,6R)-3-(2,3-Dihydro-1H-inden-2-yl)-6-(1-ethylpropyl)-2,5-dioxo-1-piperazinyl]-N-methyl-2-(1-methyl-1H-indazol-5-yl)acetamide]
≤ 0.398 | CCC(CC)[C@@H]1C(=O)N[C@H](C2Cc3ccccc3C2)C(=O)N1[C@@H](C(=O)N(C)C)c1ccc2c(cnn2C)c1 [Example 7, (2R)-2-[(3R,6R)-3-(2,3-Dihydro-1H-inden-2-yl)-6-(1-ethylpropyl)-2,5-dioxo-1-piperazinyl]-N,N-dimethyl-2-(1-methyl-1H-indazol-5-yl)ethanamide]
≤ 0.398 | CCC(CC)[C@@H]1C(=O)N[C@H](C2Cc3ccccc3C2)C(=O)N1[C@@H](C(=O)N1CCOCC1)c1ccc2c(cnn2C)c1 [Example 8, (3R,6R)-3-(2,3-Dihydro-1H-inden-2-yl)-6-(1-ethylpropyl)-1-[(1R)-1-(1-methyl-1H-indazol-5-yl)-2-(4-morpholinyl)-2-oxoethyl]-2,5-piperazinedione]
